Literature values in patent US20120058942A1, “METHODS FOR CONTROLLING BLOOD-GLUCOSE LEVELS IN INSULIN-REQUIRING SUBJECTS” (priority 2010, published 2012).
No end group written: not given here.

What was measured:
[1] = human volunteers, insulin-treated T1D
[2] = humans with diabetes mellitus

Substance	rise in blood glucose that accompanies absorption of a standard meal ([1]; continued insulin by IIT)	absorption of the meal ([1]; standard meal)	secretion of glucagon ([1]; standard meal)	stimulation of insulin secretion [2]
Glucagon-like peptide-1 (HAEGTFTSDVSSYLEGQAAKEFIAWLVKGR; ends and bridges not checked; UniProt P01275 98-127, looked up) [GLP-1, incretin; post-translational product of the glucagon gene in the intestinal L-cell]	powerfully restrict the rise in blood glucose	delay in absorption of the meal	suppression of secretion of glucagon	capable of stimulating insulin secretion
gastric-inhibitory polypeptide (YAEGTFISDYSIAMDKIHQQDFVNWLLAQKGKKNDWKHNITQ; Gastric inhibitory polypeptide; UniProt P09681 52-93, looked up) [GIP, insulin-stimulating hormone of the entero-insular axis]	–	–	–	failed to stimulate insulin secretion
